Each structure is given as a SMILES string.

The text below walks through data of ChEMBL document CHEMBL5465560, “Selectivity Literature for EUbOPEN Chemogenomic Library” (2024).

The target in test [1] is Fibroblast growth factor receptor 4 (Homo sapiens, UniProt P22455). Kind of test: Selectivity interaction (Upstate Kinase Profiler service (Millipore)) EUB0000056c FGFR4. Particulars: at 1 µM.
Test [2] addresses Phosphatidylinositol 4,5-bisphosphate 3-kinase catalytic subunit alpha isoform (Homo sapiens) (UniProt P42336). In words: Selectivity interaction (ProQinase) EUB0000171b PIK3CA.
Test [3] concerns the target Serine/threonine-protein kinase N1 (Homo sapiens, UniProt Q16512). Particulars: at 10 µM.
In test [4] the target is Receptor-type tyrosine-protein kinase FLT3 (Homo sapiens) (UniProt P36888). In words: Selectivity interaction (KinaseProfiler screening (Millipore)) EUB0000601a FLT3. The note with it: at 3 µM.
The target of test [5] is Receptor tyrosine-protein kinase erbB-4 (Homo sapiens, UniProt Q15303). In words: Selectivity interaction (KinomeScan (DiscoverX)) EUB0000092b ERBB4. Particulars: at 10 µM.
The target of test [6] is Tyrosine-protein kinase Fgr (Homo sapiens) (UniProt P09769). In words: Selectivity interaction (KinomeScan (DiscoverX)) EUB0000092b FGR. The note with it: at 10 µM.
Test [7] concerns the target Serine/threonine-protein kinase PAK 2 (Homo sapiens) (UniProt Q13177). Kind of test: Selectivity interaction (KinomeScan (DiscoverX)) EUB0001049a PAK2. The note with it: at 1 µM.
In test [8] the target is Tyrosine-protein kinase Fer (Homo sapiens) (UniProt P16591). In words: Selectivity interaction (KinomeScan (DiscoverX)) EUB0000045b FER.
In test [9] the test system is T1, Receptor-type tyrosine-protein kinase FLT3 (Homo sapiens), P36888 [D835Y].
T1 sequence (whole entry): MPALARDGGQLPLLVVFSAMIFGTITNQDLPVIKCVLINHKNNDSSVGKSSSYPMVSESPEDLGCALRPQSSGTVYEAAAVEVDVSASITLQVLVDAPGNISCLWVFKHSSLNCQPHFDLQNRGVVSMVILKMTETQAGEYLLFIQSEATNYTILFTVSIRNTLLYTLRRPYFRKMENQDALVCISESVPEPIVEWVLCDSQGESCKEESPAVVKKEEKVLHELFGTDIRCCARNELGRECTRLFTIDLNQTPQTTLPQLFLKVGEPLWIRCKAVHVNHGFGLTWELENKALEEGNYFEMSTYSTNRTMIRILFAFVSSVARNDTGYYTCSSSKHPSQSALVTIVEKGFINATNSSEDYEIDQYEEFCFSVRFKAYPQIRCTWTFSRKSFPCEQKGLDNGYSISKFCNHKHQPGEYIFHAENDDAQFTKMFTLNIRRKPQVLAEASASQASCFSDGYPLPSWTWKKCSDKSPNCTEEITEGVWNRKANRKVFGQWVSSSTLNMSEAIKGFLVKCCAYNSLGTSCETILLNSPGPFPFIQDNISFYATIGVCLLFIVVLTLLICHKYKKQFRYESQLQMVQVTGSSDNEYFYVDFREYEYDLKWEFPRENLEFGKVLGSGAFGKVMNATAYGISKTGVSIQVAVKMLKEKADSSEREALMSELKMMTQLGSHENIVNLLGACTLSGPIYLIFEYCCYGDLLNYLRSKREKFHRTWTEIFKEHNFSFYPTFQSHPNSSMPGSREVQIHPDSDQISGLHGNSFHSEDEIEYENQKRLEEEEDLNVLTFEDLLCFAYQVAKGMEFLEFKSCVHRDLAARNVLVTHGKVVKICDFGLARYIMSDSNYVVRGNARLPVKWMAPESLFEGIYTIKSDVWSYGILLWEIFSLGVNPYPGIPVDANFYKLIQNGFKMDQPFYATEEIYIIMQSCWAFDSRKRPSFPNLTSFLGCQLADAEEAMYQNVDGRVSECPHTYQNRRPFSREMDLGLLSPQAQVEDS
Kind of test: Selectivity interaction (KinomeScan (DiscoverX)) EUB0000045b FLT3.

For test [10], the system named is Leucine-rich repeat serine/threonine-protein kinase 2 (Homo sapiens), Q5S007 [G2019S]. Kind of test: (§1) Selectivity interaction (KinomeScan (DiscoverX)) EUB0000045b LRRK2.
Sequence of Leucine-rich repeat serine/threonine-protein kinase 2 (Homo sapiens), Q5S007 [G2019S] (Q5S007 whole entry G2019S): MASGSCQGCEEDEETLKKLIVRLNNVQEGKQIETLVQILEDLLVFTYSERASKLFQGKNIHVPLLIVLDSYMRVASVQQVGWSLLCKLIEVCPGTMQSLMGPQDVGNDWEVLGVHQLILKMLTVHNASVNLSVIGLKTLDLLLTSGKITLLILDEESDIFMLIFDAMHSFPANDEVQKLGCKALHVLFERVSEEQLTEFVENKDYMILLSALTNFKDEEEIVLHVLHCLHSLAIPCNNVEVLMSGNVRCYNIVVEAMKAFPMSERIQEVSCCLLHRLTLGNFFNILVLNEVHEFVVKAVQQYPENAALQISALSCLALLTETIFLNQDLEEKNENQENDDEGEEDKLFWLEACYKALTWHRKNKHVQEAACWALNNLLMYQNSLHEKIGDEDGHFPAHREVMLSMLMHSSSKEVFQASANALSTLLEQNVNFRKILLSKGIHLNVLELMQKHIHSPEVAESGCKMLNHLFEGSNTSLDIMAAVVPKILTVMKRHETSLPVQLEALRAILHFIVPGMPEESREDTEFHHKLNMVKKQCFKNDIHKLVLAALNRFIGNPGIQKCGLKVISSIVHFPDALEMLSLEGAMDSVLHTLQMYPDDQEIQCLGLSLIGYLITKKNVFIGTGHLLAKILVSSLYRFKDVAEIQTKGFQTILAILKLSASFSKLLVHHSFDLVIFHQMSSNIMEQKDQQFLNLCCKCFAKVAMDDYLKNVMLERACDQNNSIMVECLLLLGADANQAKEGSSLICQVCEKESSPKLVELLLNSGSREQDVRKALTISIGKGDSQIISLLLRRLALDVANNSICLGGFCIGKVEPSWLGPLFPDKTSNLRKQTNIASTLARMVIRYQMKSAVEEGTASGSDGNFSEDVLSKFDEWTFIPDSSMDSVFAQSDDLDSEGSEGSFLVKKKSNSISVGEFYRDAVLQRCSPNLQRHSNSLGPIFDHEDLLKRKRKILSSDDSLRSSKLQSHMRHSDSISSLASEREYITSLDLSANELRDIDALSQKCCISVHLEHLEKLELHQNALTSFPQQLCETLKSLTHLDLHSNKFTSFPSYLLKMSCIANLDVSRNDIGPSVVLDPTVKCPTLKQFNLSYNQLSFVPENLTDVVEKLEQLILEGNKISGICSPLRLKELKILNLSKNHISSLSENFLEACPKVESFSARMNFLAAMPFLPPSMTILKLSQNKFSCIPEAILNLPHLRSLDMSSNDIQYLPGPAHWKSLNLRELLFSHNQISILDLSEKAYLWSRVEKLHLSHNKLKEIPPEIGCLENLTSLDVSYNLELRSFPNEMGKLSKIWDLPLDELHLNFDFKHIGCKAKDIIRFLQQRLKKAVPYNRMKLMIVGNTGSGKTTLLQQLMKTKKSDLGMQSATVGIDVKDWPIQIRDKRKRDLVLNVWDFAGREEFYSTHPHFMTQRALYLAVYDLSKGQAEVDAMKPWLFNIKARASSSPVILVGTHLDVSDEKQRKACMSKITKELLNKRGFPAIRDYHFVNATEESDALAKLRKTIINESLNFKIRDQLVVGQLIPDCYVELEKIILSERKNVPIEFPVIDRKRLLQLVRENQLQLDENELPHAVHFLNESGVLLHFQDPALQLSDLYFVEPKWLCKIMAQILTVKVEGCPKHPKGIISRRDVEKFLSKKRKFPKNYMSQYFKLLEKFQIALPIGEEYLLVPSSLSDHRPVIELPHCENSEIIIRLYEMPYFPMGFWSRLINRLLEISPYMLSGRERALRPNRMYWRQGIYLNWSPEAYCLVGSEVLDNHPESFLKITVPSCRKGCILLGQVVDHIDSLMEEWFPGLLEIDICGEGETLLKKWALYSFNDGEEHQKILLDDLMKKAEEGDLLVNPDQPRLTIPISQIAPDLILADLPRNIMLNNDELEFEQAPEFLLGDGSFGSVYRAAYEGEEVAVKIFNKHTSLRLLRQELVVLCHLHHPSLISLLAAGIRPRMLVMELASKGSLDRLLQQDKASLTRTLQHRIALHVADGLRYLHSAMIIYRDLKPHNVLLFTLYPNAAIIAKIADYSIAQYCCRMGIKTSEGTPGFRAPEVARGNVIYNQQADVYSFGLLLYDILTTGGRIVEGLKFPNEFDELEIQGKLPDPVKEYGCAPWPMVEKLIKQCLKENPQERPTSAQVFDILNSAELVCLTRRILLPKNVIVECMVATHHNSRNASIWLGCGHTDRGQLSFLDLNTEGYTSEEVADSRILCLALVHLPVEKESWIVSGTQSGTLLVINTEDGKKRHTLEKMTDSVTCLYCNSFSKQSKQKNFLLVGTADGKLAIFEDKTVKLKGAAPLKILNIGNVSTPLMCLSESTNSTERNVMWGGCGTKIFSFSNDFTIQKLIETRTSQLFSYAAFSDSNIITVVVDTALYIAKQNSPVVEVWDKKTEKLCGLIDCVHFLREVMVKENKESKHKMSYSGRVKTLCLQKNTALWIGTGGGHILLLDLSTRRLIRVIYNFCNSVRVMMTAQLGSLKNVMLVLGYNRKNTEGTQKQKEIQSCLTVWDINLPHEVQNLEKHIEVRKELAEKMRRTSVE
The target of test [11] is Leucine-rich repeat serine/threonine-protein kinase 2 (Homo sapiens, UniProt Q5S007). Described as §1.
Sequence of Leucine-rich repeat serine/threonine-protein kinase 2 (Q5S007 whole entry): as the sequence (Q5S007 whole entry G2019S) above, with S2019G counted along it
The target of test [12] is Serine/threonine-protein kinase 16 (Homo sapiens, UniProt O75716). Kind of test: Selectivity interaction (KinomeScan (DiscoverX)) EUB0001868a STK16. The note with it: at 1 µM.
Test [13] deals with Tyrosine-protein kinase JAK1 (Homo sapiens, UniProt P23458). Kind of test: Selectivity interaction (ActivX KiNativ screen (kinase selectivity in THP-1 cell lysates)) EUB0000639a JAK1. The class given is subcellular. Particulars: lysate, at 5 µM.
Test [14] addresses Serine/threonine-protein kinase WNK3 (Homo sapiens) (UniProt Q9BYP7). In words: Selectivity interaction (ActivX KiNativ screen (kinase selectivity in THP-1 cell lysates)) EUB0000639a WNK3. It is filed as subcellular. The note with it: lysate.
Test [15] has as its target LIM domain kinase 2 (Homo sapiens) (UniProt P53671). In words: Selectivity interaction (KinomeScan (DiscoverX)) EUB0000229b LIMK2. Particulars: at 10 µM.
For test [16], the target named is Mitogen-activated protein kinase 6 (Homo sapiens) (UniProt Q16659). In words: Selectivity interaction (KinomeScan (DiscoverX)) EUB0000595a MAPK6. Particulars: at 10 µM.
Sequence of Mitogen-activated protein kinase 6 (Homo sapiens) (Q16659 whole entry): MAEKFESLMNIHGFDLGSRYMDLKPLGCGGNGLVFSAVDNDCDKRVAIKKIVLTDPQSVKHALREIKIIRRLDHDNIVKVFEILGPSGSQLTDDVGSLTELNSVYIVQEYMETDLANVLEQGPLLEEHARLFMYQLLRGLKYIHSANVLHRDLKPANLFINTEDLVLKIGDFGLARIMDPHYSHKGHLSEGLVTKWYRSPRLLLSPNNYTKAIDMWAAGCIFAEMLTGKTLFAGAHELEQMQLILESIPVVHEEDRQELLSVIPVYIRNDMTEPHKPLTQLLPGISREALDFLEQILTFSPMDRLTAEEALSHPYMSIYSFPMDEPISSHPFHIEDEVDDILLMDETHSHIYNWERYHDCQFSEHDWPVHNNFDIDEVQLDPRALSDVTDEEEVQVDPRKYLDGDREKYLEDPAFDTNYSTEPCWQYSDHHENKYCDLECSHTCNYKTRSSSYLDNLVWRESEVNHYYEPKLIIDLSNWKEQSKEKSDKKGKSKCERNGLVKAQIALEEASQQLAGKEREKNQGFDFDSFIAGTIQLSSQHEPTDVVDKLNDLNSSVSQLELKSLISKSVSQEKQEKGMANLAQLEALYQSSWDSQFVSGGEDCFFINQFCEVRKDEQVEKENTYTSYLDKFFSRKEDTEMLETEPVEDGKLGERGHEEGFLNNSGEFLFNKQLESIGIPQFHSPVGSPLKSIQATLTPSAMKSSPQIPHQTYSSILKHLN

Sequence of Serine/threonine-protein kinase WNK3 (Homo sapiens) (Q9BYP7 whole entry, the tested form may be a part): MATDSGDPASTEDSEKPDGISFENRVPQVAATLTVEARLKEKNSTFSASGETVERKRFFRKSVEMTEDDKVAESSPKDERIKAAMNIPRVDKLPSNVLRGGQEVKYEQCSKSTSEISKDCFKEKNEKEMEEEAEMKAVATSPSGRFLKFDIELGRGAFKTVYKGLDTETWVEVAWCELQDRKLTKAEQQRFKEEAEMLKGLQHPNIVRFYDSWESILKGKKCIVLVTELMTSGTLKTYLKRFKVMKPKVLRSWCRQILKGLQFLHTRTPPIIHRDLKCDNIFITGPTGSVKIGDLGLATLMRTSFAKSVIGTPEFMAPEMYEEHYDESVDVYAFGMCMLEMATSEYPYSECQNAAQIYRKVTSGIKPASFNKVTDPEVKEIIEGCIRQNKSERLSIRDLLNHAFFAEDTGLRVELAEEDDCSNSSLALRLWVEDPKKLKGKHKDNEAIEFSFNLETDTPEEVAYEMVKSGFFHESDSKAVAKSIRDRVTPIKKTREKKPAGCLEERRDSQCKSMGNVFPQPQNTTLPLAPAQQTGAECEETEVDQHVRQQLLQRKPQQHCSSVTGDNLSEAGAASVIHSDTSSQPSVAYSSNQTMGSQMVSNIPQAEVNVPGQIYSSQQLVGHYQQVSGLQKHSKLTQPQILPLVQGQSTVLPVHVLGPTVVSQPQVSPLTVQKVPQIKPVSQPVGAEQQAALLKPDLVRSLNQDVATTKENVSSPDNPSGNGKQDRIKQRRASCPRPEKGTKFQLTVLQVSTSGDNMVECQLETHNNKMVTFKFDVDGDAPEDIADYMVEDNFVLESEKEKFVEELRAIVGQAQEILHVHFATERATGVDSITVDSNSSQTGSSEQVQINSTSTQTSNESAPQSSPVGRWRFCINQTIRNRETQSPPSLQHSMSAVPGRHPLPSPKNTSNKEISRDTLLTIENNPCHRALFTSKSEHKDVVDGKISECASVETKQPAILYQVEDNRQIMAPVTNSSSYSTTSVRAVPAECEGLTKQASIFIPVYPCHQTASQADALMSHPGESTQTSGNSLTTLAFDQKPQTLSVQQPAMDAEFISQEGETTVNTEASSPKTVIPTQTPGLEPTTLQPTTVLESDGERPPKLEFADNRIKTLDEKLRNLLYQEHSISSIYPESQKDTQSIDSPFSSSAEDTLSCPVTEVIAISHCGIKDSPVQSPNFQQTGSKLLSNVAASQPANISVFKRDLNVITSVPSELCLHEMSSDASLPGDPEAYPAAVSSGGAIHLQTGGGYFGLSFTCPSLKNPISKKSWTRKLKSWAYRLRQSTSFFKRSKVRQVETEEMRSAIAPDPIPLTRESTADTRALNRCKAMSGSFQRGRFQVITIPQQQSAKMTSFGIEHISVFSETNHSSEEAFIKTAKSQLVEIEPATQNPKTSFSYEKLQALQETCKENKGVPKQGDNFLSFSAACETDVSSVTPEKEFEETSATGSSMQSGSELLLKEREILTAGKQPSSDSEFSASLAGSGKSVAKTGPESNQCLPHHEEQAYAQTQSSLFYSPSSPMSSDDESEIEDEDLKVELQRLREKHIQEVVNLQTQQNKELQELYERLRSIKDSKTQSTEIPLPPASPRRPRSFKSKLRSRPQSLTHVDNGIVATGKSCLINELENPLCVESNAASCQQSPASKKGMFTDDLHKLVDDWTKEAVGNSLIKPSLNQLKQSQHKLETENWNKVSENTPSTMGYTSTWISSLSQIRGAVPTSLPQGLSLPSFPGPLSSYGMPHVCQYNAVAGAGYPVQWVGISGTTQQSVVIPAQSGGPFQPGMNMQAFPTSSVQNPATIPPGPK

Take `Cc1ccc(-c2ccc3c(ccc4sc5c(c43)NC[C@@H](C)NC5=O)n2)cn1`: the % of inhibition in test [1] came out at 8%.

On to `C=CC(=O)Nc1cccc(C(=O)Nc2ccc(Nc3cc(-c4[nH]c(SC)nc4C)ccn3)cc2)c1`, for which the figures for the % of control in [2] (at 1 µM) and in test [2] (at 5 µM) were 118% and 106%, respectively.

In [3], `Cc1cc([C@@H](C)Nc2ccccc2C(=O)O)c2nc(N3CCOCC3)cc(=O)n2c1` [AZD-6482] returned a % of control of 100%.

`CCc1cc(Nc2nccc(-c3c(-c4ccc(OC)c(C(=O)Nc5c(F)cccc5F)c4)nc4ccccn34)n2)c(OC)cc1N1CCC(N2CCN(S(C)(=O)=O)CC2)CC1`: in test [4], the % of inhibition came out at 57%.

With `CCC(=O)N1CCN(c2ccc(-n3c(=O)ccc4cnc5ccc(-c6cnc7ccccc7c6)cc5c43)cc2C(F)(F)F)CC1`, the % of control amounted to 100% in test [5] and 78% in test [6].

Take `COc1cc(Nc2nc(C)cc(-c3cnn4nc(OC)ccc34)n2)cc(C(F)(F)F)c1`: in test [7], the % of control stood at 75%.

As for `C=CC(=O)Nc1cc(-n2c(=O)ccc3cnc4ccc(-c5ccc(NS(C)(=O)=O)cc5)cc4c32)ccc1C`, the % of control in test [8] (at 1 µM) was determined as 66%; in test [8] (at 10 µM), 89%; in test [9] (at 1 µM), 100%; in test [9] (at 10 µM), 100%; in [10] (at 1 µM), 100%; in test [10] (at 10 µM), 62%. The % of control in [11] (at 1 µM) and in test [11] (at 10 µM) was 100% throughout.

`Cc1cc(-c2ccnc(Nc3cnn(C)c3)n2)ccc1CNC(=O)N1CC(OC(C)C)C1` gave a % of control in test [12] of 23%.

In the case of `CC[C@@H]1[C@H](F)C(=O)N[C@@H]1COc1nccc2cc(C(N)=O)c(OC)cc12` [ZIMLOVISERTIB], the % of inhibition in test [13] was -35.3%; in test [14] (at 0.01 µM) it was 3.3%; in [14] (at 0.04 µM), -7.4%; in test [14] (at 0.2 µM), -12%; in test [14] (at 1 µM) it was -7.7%; in test [14] (at 5 µM), -14.5%.

In the case of `COc1cc(N(C)c2ccnc3ccc(C(F)(F)F)cc23)cc(OC)c1OC`, in test [15], the % binding stood at 93%.

Take `COCC(=O)NC/C=C/c1ccc2ncnc(Nc3ccc(Oc4ccc(C)nc4)c(C)c3)c2c1` [CP-724714]: the % of control in [16] was found to be 100%.
